Drawing on patent US20250059220A1, “SUBSTITUTED BENZOTHIOPHENE DERIVATIVES AND METHODS OF USE THEREOF” (Merck Sharp & Dohme LLC, priority 2021, published 2025), this text covers IC50 for 41 compounds.

The target in one assay is human PTPN2 (1-387) (Homo sapiens (Human), UniProt P17706). The experiment in a line: Human PTPN2 Biochemical Assay. The conditions noted are these: DiFMUP substrate. The procedure: Human PTPN2 Biochemical Assay
Test compounds were dissolved in DMSO, and 10-point serial 3-fold dilution series in DMSO were prepared in Echo Qualified 384-well Polypropylene Microplates (Labcyte, San Jose, CA) (top concentration 50 µM). Assay plates (384-well low volume black plates; Corning #3820, Corning, NY) were prepared by dispensing 50 nL of test compound, and DMSO (for high and low controls) by ECHO acoustic dispenser (Labcyte, San Jose CA). This was followed by addition of 5 μL of 0.2 nM human PTPN2 (1-387) solution (prepared in the assay buffer, 50 mM Tris pH 7.4, 150 mM NaCl, 0.01% Tween20, 0.5 mM dithiothreitol) to all wells except the low control. 5 μl of assay buffer was added into the low control, then the plate was incubated for 30 minutes at room temperature. Subsequently, 5 μl of 100 µM DiFMUP (6,8-difluoro-4-methylumbelliferyl phosphate) solution (prepared in assay buffer from 10 mM stock in DMSO) was added to the assay plate and incubated for 1 hour at room temperature. For detection, assay plates were read on SpectraMax Microplate Reader (Molecular Devices), with Excitation wavelength=360 nm and Emission wavelength=460 nm. Test compound effects were normalized to the window defined by the controls, DMSO/buffer, and DMSO/50 pM human PTPN2. Calculated % effects were fit using a 4-parameter algorithm, and EC50 was reported.

A further assay concerns the target human PTPN1 (1-435) (Homo sapiens (Human), UniProt P18031). The experiment in a line: Human PTPN1 Biochemical Assay. The conditions noted are these: DiFMUP substrate, read-out: PTP1B IC50. As for the experimental part: Human PTPN1 Biochemical Assay
Test compounds were dissolved in DMSO, and 10-point serial 3-fold dilution series in DMSO were prepared in Echo Qualified 384-well Polypropylene Microplates (Labcyte, San Jose, CA) (top concentration 50 µM). […] 5 μl of assay buffer was added into the low control. The plate was incubated for 30 minutes at room temperature. Subsequently, 5 μl of 100 µM DiFMUP (6,8-difluoro-4-methylumbelliferyl phosphate) solution (prepared in assay buffer from 10 mM stock in DMSO) was added to the assay plate and incubated for 1 hour at room temperature. For detection, assay plates were read on SpectraMax Microplate Reader (Molecular Devices), with Excitation wavelength=360 nm and Emission wavelength=460 nm. […] Calculated % effects were fit using a 4-parameter algorithm, and EC50 was reported.

Chain of human PTPN2 (1-387) (P17706 other isoform, or with tags, fused parts or gaps): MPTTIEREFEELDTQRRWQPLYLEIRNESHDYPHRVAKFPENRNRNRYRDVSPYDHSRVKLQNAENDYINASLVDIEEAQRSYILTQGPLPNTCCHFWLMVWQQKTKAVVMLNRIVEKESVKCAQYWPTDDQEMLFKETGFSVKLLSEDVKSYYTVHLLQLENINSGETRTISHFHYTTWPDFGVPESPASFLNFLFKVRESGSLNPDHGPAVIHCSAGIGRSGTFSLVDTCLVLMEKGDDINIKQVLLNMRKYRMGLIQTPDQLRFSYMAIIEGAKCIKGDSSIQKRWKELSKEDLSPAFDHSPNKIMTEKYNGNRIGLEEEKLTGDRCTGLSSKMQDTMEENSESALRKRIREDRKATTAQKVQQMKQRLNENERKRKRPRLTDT
Chain of human PTPN1 (1-435) (P18031 whole entry): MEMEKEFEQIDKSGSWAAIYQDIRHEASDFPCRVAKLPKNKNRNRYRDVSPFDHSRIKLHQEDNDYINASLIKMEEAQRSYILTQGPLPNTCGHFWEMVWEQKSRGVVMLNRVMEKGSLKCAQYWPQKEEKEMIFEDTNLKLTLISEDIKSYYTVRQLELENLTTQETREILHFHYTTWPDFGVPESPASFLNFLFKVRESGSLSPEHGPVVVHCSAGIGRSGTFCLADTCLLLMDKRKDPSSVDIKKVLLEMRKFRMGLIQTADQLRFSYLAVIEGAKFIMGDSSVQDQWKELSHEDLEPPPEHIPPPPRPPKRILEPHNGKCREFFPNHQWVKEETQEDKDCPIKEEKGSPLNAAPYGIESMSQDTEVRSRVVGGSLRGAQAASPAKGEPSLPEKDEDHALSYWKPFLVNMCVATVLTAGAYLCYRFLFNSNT

On to `O=C(N[C@H]1Cc2ccc(F)cc21)c1ccc2sc(C(F)(F)P(=O)(O)O)c(Br)c2c1` [Compound 15], for which the IC50 at human PTPN2 (1-387) came to 6.16 µM; at human PTPN1 (1-435), 5.62 µM.
Take `O=C(NCC1CC1)c1ccc2sc(C(F)(F)P(=O)(O)O)c(Br)c2c1` [Compound 16]: the values for the IC50 against human PTPN2 (1-387) and on human PTPN1 (1-435) were 7.25 µM and 5.12 µM, respectively.
In the case of `O=C(Nc1cccc(OCC2CCCO2)c1)c1ccc2sc(C(F)(F)P(=O)(O)O)c(Br)c2c1` (stereo not shown) [Compound 17], the IC50 was determined as 1.91 µM against human PTPN2 (1-387) and 1.46 µM at human PTPN1 (1-435).
The corresponding values for `O=C(Nc1cccc(OC(F)(F)F)c1)c1ccc2sc(C(F)(F)P(=O)(O)O)c(Br)c2c1` [Compound 18] are 2.17 µM and 1.33 µM.
The corresponding values for `O=C(Nc1ncc(C2CCC2)o1)c1ccc2sc(C(F)(F)P(=O)(O)O)c(Br)c2c1` [Compound 19] are 2.35 µM and 1.5 µM.
As for `CN(C(=O)c1ccc2sc(C(F)(F)P(=O)(O)O)c(Br)c2c1)c1cccc(Oc2ccccc2)c1` [Compound 20], the IC50 against human PTPN2 (1-387) stood at 6.14 µM; at human PTPN1 (1-435), 4.44 µM.
For the compound `N#CC1(c2ccc(NC(=O)c3ccc4sc(C(F)(F)P(=O)(O)O)c(Br)c4c3)cc2)CCCCC1` [Compound 21], the IC50 was 2.15 µM on human PTPN2 (1-387) and 1.41 µM at human PTPN1 (1-435).
The corresponding values for `O=C(NCc1cnn2ccccc12)c1ccc2sc(C(F)(F)P(=O)(O)O)c(Br)c2c1` [Compound 22] are 2.59 µM and 1.99 µM.
Take `O=C(Nc1cccnc1Oc1ccccc1)c1ccc2sc(C(F)(F)P(=O)(O)O)c(Br)c2c1` [Compound 23]: the half-maximal inhibitory concentration (IC50) on human PTPN2 (1-387) is 9.28 µM; on human PTPN1 (1-435), 7.25 µM.
On to `COc1cccc(NC(=O)c2ccc3sc(C(F)(F)P(=O)(O)O)c(Br)c3c2)c1` [Compound 24], for which the results for the IC50 at human PTPN2 (1-387) and at human PTPN1 (1-435) were 2.16 µM and 1.36 µM, respectively.
For the compound `O=C(Nc1ccc(F)cc1)c1ccc2sc(C(F)(F)P(=O)(O)O)c(Br)c2c1` [Compound 25], the values for the IC50 on human PTPN2 (1-387) and on human PTPN1 (1-435) were 3.17 µM and 2.57 µM, respectively.
As for `O=C(Nc1ccc(OCC2CCCO2)cc1)c1ccc2sc(C(F)(F)P(=O)(O)O)c(Br)c2c1` (stereo not shown) [Compound 26], the values for the IC50 against human PTPN2 (1-387) and on human PTPN1 (1-435) were 2.34 µM and 1.72 µM, respectively.
As for `O=C(NC1CC(F)(F)C1)c1ccc2sc(C(F)(F)P(=O)(O)O)c(Br)c2c1` [Compound 27], the IC50 worked out at 3.23 µM against human PTPN2 (1-387) and 2.19 µM on human PTPN1 (1-435).
Regarding `O=C(NCC1CC(F)(F)C1)c1ccc2sc(C(F)(F)P(=O)(O)O)c(Br)c2c1` [Compound 28], the IC50 against human PTPN2 (1-387) turned out to be 6.93 µM; at human PTPN1 (1-435) it was 5.16 µM.
For the compound `COc1ccc(NC(=O)c2ccc3sc(C(F)(F)P(=O)(O)O)c(Br)c3c2)cc1` [Compound 29], the figures for the IC50 against human PTPN2 (1-387) and on human PTPN1 (1-435) were 3.34 µM and 2.49 µM, respectively.
The corresponding values for `O=C(NCc1cncc(C(F)(F)F)c1)c1ccc2sc(C(F)(F)P(=O)(O)O)c(Br)c2c1` [Compound 30] are 2.09 µM and 1.84 µM.
`O=C(Nc1ccccc1F)c1ccc2sc(C(F)(F)P(=O)(O)O)c(Br)c2c1` [Compound 32]: the IC50 against human PTPN2 (1-387) was determined as 1.89 µM; on human PTPN1 (1-435) it was 1.31 µM.
The corresponding values for `O=C(Nc1cccc(F)c1)c1ccc2sc(C(F)(F)P(=O)(O)O)c(Br)c2c1` [Compound 33] are 1.86 µM and 2.12 µM.
Regarding `N#CCCCNC(=O)c1ccc2sc(C(F)(F)P(=O)(O)O)c(Br)c2c1` [Compound 34], the IC50 against human PTPN2 (1-387) worked out at 5.86 µM; at human PTPN1 (1-435) it was 4.48 µM.
Turning to `CC(NC(=O)c1ccc2sc(C(F)(F)P(=O)(O)O)c(Br)c2c1)c1cccnc1` (stereo not shown) [Compound 35], the IC50 at human PTPN2 (1-387) was determined as 7.16 µM; at human PTPN1 (1-435) it was 6.44 µM.
The corresponding values for `O=C(NC1CCC(F)(F)CC1)c1ccc2sc(C(F)(F)P(=O)(O)O)c(Br)c2c1` [Compound 36] are 3.93 µM and 2.75 µM.
Turning to `N#CC1CCC(NC(=O)c2ccc3sc(C(F)(F)P(=O)(O)O)c(Br)c3c2)C1` (stereo not shown) [Compound 37], the IC50 turned out to be 3.49 µM at human PTPN2 (1-387) and 2.65 µM at human PTPN1 (1-435).
`N#CC1(CNC(=O)c2ccc3sc(C(F)(F)P(=O)(O)O)c(Br)c3c2)CC1` [Compound 38]: the IC50 came to 4.24 µM on human PTPN2 (1-387) and 3.4 µM at human PTPN1 (1-435).
The corresponding values for `O=C(NC1CC1(F)F)c1ccc2sc(C(F)(F)P(=O)(O)O)c(Br)c2c1` (stereo not shown) [Compound 39] are 3 µM and 2.27 µM.
The corresponding values for `COC1CC(NC(=O)c2ccc3sc(C(F)(F)P(=O)(O)O)c(Br)c3c2)C1` (stereo not shown) [Compound 40] are 5.78 µM and 4.2 µM.
The corresponding values for `O=C(NC1CCC(F)(F)C1)c1ccc2sc(C(F)(F)P(=O)(O)O)c(Br)c2c1` (stereo not shown) [Compound 41] are 3.23 µM and 2.23 µM.
In the case of `O=C(NCc1cncnc1)c1ccc2sc(C(F)(F)P(=O)(O)O)c(Br)c2c1` [Compound 42], the IC50 is 2.38 µM at human PTPN2 (1-387) and 1.78 µM at human PTPN1 (1-435).
The corresponding values for `Cc1noc(C)c1CCNC(=O)c1ccc2sc(C(F)(F)P(=O)(O)O)c(Br)c2c1` [Compound 43] are 6.53 µM and 4.9 µM.
For the compound `CS(=O)(=O)N1CCC(NC(=O)c2ccc3sc(C(F)(F)P(=O)(O)O)c(Br)c3c2)CC1` [Compound 44], the IC50 was 3.06 µM against human PTPN2 (1-387) and 2.47 µM at human PTPN1 (1-435).
As to `COCCCCNC(=O)c1ccc2sc(C(F)(F)P(=O)(O)O)c(Br)c2c1` [Compound 45], the figures for the IC50 at human PTPN2 (1-387) and at human PTPN1 (1-435) were 5.17 µM and 4.08 µM, respectively.
The corresponding values for `N#CCCCCNC(=O)c1ccc2sc(C(F)(F)P(=O)(O)O)c(Br)c2c1` [Compound 46] are 8.5 µM and 6.23 µM.
The corresponding values for `O=C(NCCCC(F)(F)F)c1ccc2sc(C(F)(F)P(=O)(O)O)c(Br)c2c1` [Compound 47] are 4.91 µM and 4.21 µM.
In the case of `CS(=O)(=O)N1CC2(CC(NC(=O)c3ccc4sc(C(F)(F)P(=O)(O)O)c(Br)c4c3)C2)C1` [Compound 48], the IC50 at human PTPN2 (1-387) is 7.15 µM; at human PTPN1 (1-435), 5.53 µM.
For `O=C(NCC(F)(F)F)c1ccc2sc(C(F)(F)P(=O)(O)O)c(Br)c2c1` [Compound 49], the values for the IC50 on human PTPN2 (1-387) and on human PTPN1 (1-435) were 5.09 µM and 4.15 µM, respectively.
Take `Cc1nn(C)cc1CNC(=O)c1ccc2sc(C(F)(F)P(=O)(O)O)c(Br)c2c1` [Compound 50]: the IC50 was found to be 7.49 µM against human PTPN2 (1-387) and 6.39 µM at human PTPN1 (1-435).
Turning to `O=C(NCc1nnc2n1CCC2)c1ccc2sc(C(F)(F)P(=O)(O)O)c(Br)c2c1` [Compound 51], the IC50 stood at 1.35 µM on human PTPN2 (1-387) and 1.11 µM at human PTPN1 (1-435).
The corresponding values for `O=C(N[C@H]1CC[C@H](C(F)(F)F)CC1)c1ccc2sc(C(F)(F)P(=O)(O)O)c(Br)c2c1` [Compound 52] are 6.82 µM and 5.68 µM.
As for `O=C(NCCC1CCCCC1)c1ccc2sc(C(F)(F)P(=O)(O)O)c(Br)c2c1` [Compound 53], the IC50 at human PTPN2 (1-387) came to 4.11 µM; at human PTPN1 (1-435), 3.24 µM.
The corresponding values for `O=C(N[C@H]1CC[C@@H](C(F)(F)F)CC1)c1ccc2sc(C(F)(F)P(=O)(O)O)c(Br)c2c1` [Compound 54] are 6.75 µM and 5.03 µM.
The corresponding values for `CC(C)CNC(=O)c1ccc2sc(C(F)(F)P(=O)(O)O)c(Br)c2c1` [Compound 55] are 9.7 µM and 7.62 µM.
`O=C(NC1CCS(=O)(=O)C1)c1ccc2sc(C(F)(F)P(=O)(O)O)c(Br)c2c1` (stereo not shown) [Compound 56]: the IC50 is 3.93 µM against human PTPN2 (1-387) and 2.88 µM on human PTPN1 (1-435).
